Results as given in patent US20190077766A1, “Compositions For APP-Selective BACE Inhibition And Uses Therefor” (NantNeuro, LLC, priority 2015, published 2019).
Values joined by “and” are separate entries in the source; they are usually repeats but may differ in a detail not shown here. Equal entries are not always repeated. Where two headings read alike, the source gives them in different places.

Tests used:
BACE1 = molecular target: T1, BACE1 (Homo sapiens, UniProt P56817); test: in vitro BACE inhibition assay (Primary BACE1 IC50); format: biochemical
T1 construct: purchased R&D 931-AS-050
T1 sequence (P56817 46-457 limits assumed): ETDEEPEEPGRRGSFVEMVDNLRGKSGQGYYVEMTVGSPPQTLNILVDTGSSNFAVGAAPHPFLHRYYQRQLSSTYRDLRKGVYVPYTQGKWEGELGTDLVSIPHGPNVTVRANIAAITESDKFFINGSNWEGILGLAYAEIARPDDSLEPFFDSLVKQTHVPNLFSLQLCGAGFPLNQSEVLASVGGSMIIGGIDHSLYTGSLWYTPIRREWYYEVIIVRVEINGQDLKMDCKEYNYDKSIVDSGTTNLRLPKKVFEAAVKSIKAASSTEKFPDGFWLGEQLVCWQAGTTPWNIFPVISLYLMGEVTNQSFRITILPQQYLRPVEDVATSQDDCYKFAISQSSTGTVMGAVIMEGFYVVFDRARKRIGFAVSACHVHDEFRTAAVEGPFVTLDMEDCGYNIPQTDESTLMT
Source text: (§1) ABBI Assay: APP Binding BACE Inhibitor (ABBI) activity of any of the compounds described herein can readily be verified using, for example, assays described herein. Basically, in certain embodiments a pair the assays are utilized to identify ABBI compounds that inhibit BACE cleavage of the MBP-C125 APP substrate, resulting in the inhibition of the production of C99 and the β-site peptide substrate (P5-P5′) and also interacts with APP, for example, as measured by surface plasmon resonance (SPR) analysis. In one illustrative embodiment, an MBP-C125 APP695 wt fusion protein can be used as one of the substrates and the second substrate can be the commercially available P5-P5′ fluorescence substrate.

[1] = test system: CHO-7W cells that were stably transfected with human APP (wildtype); test: Secondary cell-based APP processing assay (sAPPalpha, sAPPbeta, Abeta 1-42); conditions: for Aβ1-42 peptide formation / production: cell based; for preference (selectivity) towards APP in BACE inhibition: from Aβ1-42, sAPPβ and sAPPα formation
Source text: Cellular Assays: Numerous cell-based assays can be used to evaluate the activity of agent(s) of interest on relative alpha-secretase activity to beta-secretase activity and/or processing of APP to release amyloidogenic versus non-amyloidogenic oligomers.
Human cell lines that normally process Aβ from APP provide a useful means to assay inhibitory activities of the agent(s). Production and release of Aβ and/or other cleavage products into the culture medium can be measured, for example by immunoassay, such as Western blot or enzyme-linked immunoassay (EIA) such as by ELISA.
Relative activity of the alpha-secretase to the beta-secretase can be measured by analysis of one or more cleavage products of the APP substrate. For example, inhibition of beta-secretase activity against the substrate APP would be expected to decrease release of specific beta-secretase induced APP cleavage products such as Aβ (e.g., Aβ40 or Aβ42), sAPPβ and APPneo. Promotion or enhancement of alpha-secretase activity against the substrate APP would be expected to increase release of specific alpha-secretase induced APP cleavage products such as sAPPα and p3 peptide.
In such assays, for example, the cells expressing APP, alpha-secretase and/or beta-secretase are incubated in a culture medium under conditions suitable for alpha-secretase and/or beta-secretase enzymatic activity at its cleavage site on the APP substrate. On exposure of the cells to the agent(s), the amount of Aβ released into the medium and/or the amount of CTF99 fragments of APP in the cell lysates is reduced as compared with the control. The cleavage products of APP can be analyzed, for example, by immune reactions with specific antibodies, as discussed above.

[2] = PAMPA parallel artificial membrane permeability assay; format: in vitro ADME; conditions: Table 4
solubility (Sol) = format: physicochemical; conditions: Table 3; in words
[3] = pharmacokinetics, brain level (Cmax brain); format: in vivo; conditions: 10 mg/kg 5Q
Source text: As is readily apparent, not all compounds were equally able to cross the blood brain barrier, but most compounds did reach pharmacologically meaningful levels given their low IC50 values. FIG. 5A provides a further exemplary compound (FAH65) and FIG. 5B depicts dose response data for Aβ1-42 production in a cell based system. Further shown are effects observed with regard to Aβ1-42 production, sAPPβ and sAPPα formation. […] Here, data are presented for oral and subcutaneous administration (SQ) at dosages of 10- and 30 mg/kg. […] Once more, it should be noted that these exemplary compounds are preferential towards APP in BACE inhibition as can be taken from the data for Aβ1-42, sAPPβ, and sAPPα formation.

APP = molecular target: T2, APP (Homo sapiens, UniProt P05067); test: APP binding (APP Kd), surface plasmon resonance
T2 construct: made in house
T2 sequence (P05067 230-624 isoform P05067-4): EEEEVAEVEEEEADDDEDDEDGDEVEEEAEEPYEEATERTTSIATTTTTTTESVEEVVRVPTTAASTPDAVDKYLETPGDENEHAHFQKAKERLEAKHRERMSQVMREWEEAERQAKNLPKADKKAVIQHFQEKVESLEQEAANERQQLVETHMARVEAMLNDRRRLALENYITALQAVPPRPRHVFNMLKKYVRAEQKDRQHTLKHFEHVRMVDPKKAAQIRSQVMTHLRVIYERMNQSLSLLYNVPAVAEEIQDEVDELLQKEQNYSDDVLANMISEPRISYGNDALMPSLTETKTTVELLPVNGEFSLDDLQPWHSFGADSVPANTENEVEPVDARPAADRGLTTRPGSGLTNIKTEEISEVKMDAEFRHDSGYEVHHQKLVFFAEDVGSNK
Source text: as §1, with “substrate. […]” for “substrate.”

[4] = Table 4, several values in a cell = several determinations, read-out: BACE1 IC50
[5] = Tables 1 and 2, read-out: Primary BACE1 IC50

| Structure (SMILES) | IC50 (BACE1; [4]) | IC50 (BACE1; [5]) [nM] | also measured |
| --- | --- | --- | --- |
| CCCc1cc(C2(c3ccc(OC(F)F)c(C)c3)N=C(N)N(C)C2=O)ccn1 (stereo not shown) [FAH-80] | 1670 nM |  |  |
| Cc1cc(C2(c3ccncc3)N=C(N)N(C)C2=O)ccc1OC(F)F (stereo not shown) [FAH-78] | 2730 nM |  |  |
| Cc1cc(C2(c3cocn3)N=C(N)N(C)C2=O)ccc1OC(F)F (stereo not shown) [FAH-38] | 15300 nM | > 10000 | Secondary (sAPPalpha, sAPPbeta, sAPP(α/β), Abeta 1-42, sAPPa/Aβ) ([1]; Table 2, one cell for the whole line): unchanged |
| Cc1cc(F)cc(C2(c3ccc(OC(F)F)c(C)c3)N=C(N)N(C)C2=O)c1 (stereo not shown) [FAH-22] |  |  | sAPPbeta ([1]; Secondary (1st test, n = 3), ↓ = decrease): ↓>20% |
| CN1C(=O)C(c2cc(F)cc(F)c2)(c2ccnc(F)c2)N=C1N (stereo not shown) [FAH-15] | 2000 nM |  |  |
| Cc1cc(C2(c3cccc(C(C)C)c3)N=C(N)N(C)C2=O)ccc1OC(F)F (stereo not shown) [FAH-29] | 11000 nM |  |  |
| CN1C(=O)C(c2cc(F)cc(F)c2)(c2cccc(OC(F)F)c2)N=C1N (stereo not shown) [FAH-04] | 2230 nM and 3500 nM |  |  |
| CNCCc1cccc(C2(c3ccc(OC(F)F)c(C)c3)N=C(N)N(C)C2=O)c1 (stereo not shown) [FAH-63] | 1180 nM |  | PAMPA [2]: 0.36 |
| COCc1cccc(C2(c3ccc(OC(F)F)c(C)c3)N=C(N)N(C)C2=O)c1 (stereo not shown) [FAH-44] | 300 nM and 50 nM | 300 | IC50 (BACE1; Table 3, read-out: IC50): ~25 nM; Sol (solubility (Sol)): med; Cmax brain [3]: ~200 nM; sAPPalpha ([1]; Secondary (1st test, n = 3), ↑ = increase): ↑>10% |
| COc1ccc(C2(c3cc(C)c(F)cc3F)N=C(N)N(C)C2=O)cc1C (stereo not shown) [FAH-09] | 1400 nM |  |  |
| Cc1cc(C2(c3ccc(OC(F)F)c(C)c3)N=C(N)N(C)C2=O)ccn1 (stereo not shown) [FAH-47] | 1400 nM | 1400 |  |
| Cc1cc(C2(c3cccc(-c4cccnc4)c3)N=C(N)N(C)C2=O)ccc1OC(F)F (stereo not shown) [FAH-32] | 70 nM and 50 nM | 70 | IC50 (BACE1; Table 3, read-out: IC50): ~60 nM; Sol (solubility (Sol)): Sol: good; Cmax brain [3]: <20 nM; sAPPα formation ([1]; in words, FIG. 1D): increased sAPPα formation as compared to FAH17; sAPPβ formation ([1]; in words, FIG. 1D): reduced as compared to FAH17; Aβ1-42 peptide formation / production ([1]; in words): substantially reduced; preference (selectivity) towards APP in BACE inhibition ([1]; in words): higher selectivity of FAH32 towards APP |
| Cc1cccc(C2(c3ccc(OC(F)F)c(C)c3)N=C(N)N(C)C2=O)c1 (stereo not shown) [FAH-27] | 130 nM | 130 |  |
| CN1C(=O)C(c2ccc(OC(F)F)cc2)(c2cc(F)cc(F)c2)N=C1N (stereo not shown) [FAH-02] | 2130 nM and 9200 nM |  |  |
| COc1ccc(C2(c3cc(F)cc(F)c3)N=C(N)N(C)C2=O)cc1C (stereo not shown) [FAH-06] | 600 nM and 4100 nM |  |  |
| CCCC1CC(C2(c3ccc(OC(F)F)c(C)c3)N=C(N)N(C)C2=O)CCN1 (stereo not shown) [FAH-81] | 14900 nM |  |  |
| Cc1cc(C2(c3cc(F)cc(F)c3)N=C(N)N(C)C2=O)ccc1OC(F)F (stereo not shown) [FAH-03] |  | 530 | Kd (APP): ~300 nM |
| COCc1cc(C2(c3ccc(OC(F)F)c(C)c3)N=C(N)N(C)C2=O)ccn1 (stereo not shown) [FAH-53] | 1900 nM | 2000 |  |
| Cc1cc(C2(c3cc(-c4cccnc4)ccn3)N=C(N)N(C)C2=O)ccc1OC(F)F (stereo not shown) [FAH-65] |  |  | Aβ1-42 peptide formation / production ([1]; in words): strongly reduces; preference (selectivity) towards APP in BACE inhibition ([1]; in words): clear preference towards APP |
| Cc1cc(C2(c3cc(F)cc(F)c3)N=C(N)N(C)C2=O)ccc1F (stereo not shown) [FAH-10] | 1600 nM |  |  |
| CN1C(=O)C(c2cc(F)cc(F)c2)(c2ccc(F)c(F)c2)N=C1N (stereo not shown) [FAH-14] | 1500 nM |  |  |
| Cc1cc(C2(c3cnn(C)c3)N=C(N)N(C)C2=O)ccc1OC(F)F (stereo not shown) [FAH-30] | 2000 nM |  |  |
